This is an account of results in patent publication US10125118B2, “Heteroaryl compounds and their use as therapeutic drugs” (Dong-A Socio Holdings Co., Ltd., priority 2015, dated 2018).

The experiment deals with human c-MER catalytic domain (Homo sapiens (Human), UniProt Q12866). The experiment is described as follows: LanthaScreen TR-FRET kinase assay, c-MER. The following applies: read-out: Mer TK inhibition (IC50); Biochemical IC50, TR-FRET, 10 uM ATP. (In TR-FRET formats the signal depends on donor and acceptor labels being close together.)
human c-MER catalytic domain, sequence (Q12866 587-858): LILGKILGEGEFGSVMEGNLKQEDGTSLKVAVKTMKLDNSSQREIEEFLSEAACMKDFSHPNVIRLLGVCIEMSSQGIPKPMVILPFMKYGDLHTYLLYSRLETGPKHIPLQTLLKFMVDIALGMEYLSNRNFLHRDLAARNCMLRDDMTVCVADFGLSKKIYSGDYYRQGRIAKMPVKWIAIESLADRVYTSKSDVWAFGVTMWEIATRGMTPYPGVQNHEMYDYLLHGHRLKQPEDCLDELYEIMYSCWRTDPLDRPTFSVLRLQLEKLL
As to `Cn1cc(-c2cnc(N)c(C(=O)N[C@H]3CCC[C@@H]3OCc3cccc([N+](=O)[O-])c3)c2)cn1` [Example 30, 2-amino-5-(1-methyl-1H-pyrazol-4-yl)-N-((1S,2S)-2-((3-nitrobenzyl)oxy)cyclopentyl)nicotinamide], the IC50 was over 1 µM.
For `CC(C)C[C@@H](COCc1ccccc1)NC(=O)c1cc(-c2cnn(C)c2)cnc1N` [Example 111, (S)-2-amino-N-(1-(benzyloxy)-4-methylpentan-2-yl)-5-(1-methyl-1H-pyrazol-4-yl)nicotinamide] the value was over 1 µM; for `N#Cc1ccc(-c2cnc(N)c(C(=O)N[C@H]3CCC[C@@H]3OCc3ccccc3)c2)cc1` [Example 264, 2-amino-N-((1S,2S)-2-(benzyloxy)cyclopentyl)-5-(4-cyanophenyl)-nicotinamide], over 1 µM; for `C[C@H](COCc1ccc(Cl)cc1)NC(=O)c1cc(-c2cnn(C)c2)cnc1N` [Example 102, (R)-2-amino-N-(1-((4-chlorobenzyl)oxy)propan-2-yl)-5-(1-methyl-1H-pyrazol-4-yl)nicotinamide], over 1 µM.
In the case of `Cn1cc(-c2cnc(N)c(C(=O)N[C@@H]3[C@@H](COc4ccccc4)CCC3(F)F)c2)cn1` (relative stereo) [Example 79, 2-amino-N-(trans-2,2-difluoro-5-(phenoxymethyl)cyclopentyl)-5-(1-methyl-1H-pyrazol-4-yl)nicotinamide], the IC50 is over 1 µM.
Next, `CN(C)CCOc1ccc(-c2ccc(CO[C@H]3CCC[C@@H]3NC(=O)c3cc(-c4cnn(C)c4)cnc3N)cc2)cc1` [Example 245, 2-amino-N-((1S,2S)-2-((4′-(2-(dimethylamino)ethoxy)-[1,1′-biphenyl]-4-yl)methoxy)cyclopentyl)-5-(1-methyl-M-pyrazol-4-yl)nicotinamide]: under 0.01 µM; `C[C@@H](COCc1ccccc1)NC(=O)c1cc(-c2cnn(C)c2)cnc1N` [Example 97, (S)-2-amino-N-(1-(benzyloxy)propan-2-yl)-5-(1-methyl-1H-pyrazol-4-yl)nicotinamide]: over 1 µM; `Cn1cc(-c2cnc(N)c(C(=O)N[C@H]3CCC[C@@H]3OCc3cc(F)c(F)cc3F)c2)cn1` (relative stereo) [Example 50, 2-amino-5-(1-methyl-1H-pyrazol-4-yl)-N-(trans-2-((2,4,5-trifluorobenzyl)oxy)cyclopentyl)nicotinamide]: over 1 µM.
Next, `Cn1cc(-c2cnc(N)c(C(=O)N[C@H]3CCC[C@@H]3OCc3cccc(C#N)c3)c2)cn1` [Example 31, 2-amino-N-((1S,2S)-2-((3-cyanobenzyl)oxy)cyclopentyl)-5-(1-methyl-1H-pyrazol-4-yl)nicotinamide]: over 1 µM; `CN(Cc1ccccc1)[C@H]1CCC[C@@H]1NC(=O)c1cc(-c2cnn(C)c2)cnc1N` (relative stereo) [Example 76, 2-amino-N-(trans-2-(benzyl(methyl)amino)cyclopentyl)-5-(1-methyl-1H-pyrazol-4-yl)nicotinamide]: over 1 µM; `Cc1ccc(CNc2ncc(-c3cnn(C)c3)cc2C(=O)N[C@H]2CCC[C@@H]2OCc2ccccc2)cc1C` [Example 72, N-((1S,2S)-2-(benzyloxy)cyclopentyl)-2-((3,4-dimethylbenzyl-)amino)-5-(1-methyl-1H-pyrazol-4-yl)nicotinamide]: over 1 µM.
As to `C[C@H](CNC(=O)c1cc(-c2cnn(C)c2)cnc1N)OCc1ccccc1` [Example 95, (R)-2-amino-N-(2-(benzyloxy)propyl)-5-(1-methyl-1H-pyrazol-4-yl)nicotinamide], the IC50 is over 1 µM.
Next, `C[C@@H](CNC(=O)c1cc(-c2cnn(C)c2)cnc1N)OCc1ccc(Cl)cc1` [Example 103, (S)-2-amino-N-(2-((4-chlorobenzyl)oxy)propyl)-5-(1-methyl-1H-pyrazol-4-yl)nicotinamide]: over 1 µM; `Cn1cc(-c2cnc(N)c(C(=O)N[C@H]3CCC[C@H]3O)c2)cn1` (relative stereo) [Example 70, 2-amino-N-(cis-2-hydroxycyclopentyl)-5-(1-methyl-1H-pyrazol-4-yl)nicotinamide]: over 1 µM; `C[C@H](N)C(=O)Nc1cccc(CO[C@H]2CCC[C@@H]2NC(=O)c2cc(-c3cnn(C)c3)cnc2N)c1` [Example 58, 2-amino-N-((1S,2S)-2-((3-((S)-2-aminopropanamido)benzyl)oxy)-cyclopentyl)-5-(1-methyl-1H-pyrazol-4-yl)nicotinamide]: over 1 µM.
Regarding `Cn1cc(-c2cnc(N)c(C(=O)N[C@H]3CCC[C@@H]3OCc3cccc(-c4cccc(CO)c4)c3)c2)cn1` [Example 171, 2-amino-N-((1S,2S)-2-((3′-(hydroxymethyl)-[1,1′-biphenyl]-3-yl)-methoxy)cyclopentyl)-5-(1-methyl-1H-pyrazol-4-yl)nicotinamide], the IC50 is over 1 µM.
Next, `Cc1ccc(CO[C@H]2CCC[C@@H]2NC(=O)c2cc(-c3ccc(C(=O)N4CCC(N5CCCC5)CC4)c(C)c3)cnc2N)cc1C` [Example 330]: under 0.01 µM.
Next, `COc1cccc(COC[C@@H](C)NC(=O)c2cc(-c3cnn(C)c3)cnc2N)c1` [Example 106, (R)-2-amino-N-(1-((3-methoxybenzyl)oxy)propan-2-yl)-5-(1-methyl-1H-pyrazol-4-yl)nicotinamide]: over 1 µM; `Nc1ncc(-c2ccc(Oc3ccccc3)cc2)cc1C(=O)N[C@H]1CCC[C@@H]1OCc1ccccc1` [Example 267, 2-amino-N-((1S,2S)-2-(benzyloxy)cyclopentyl)-5-(4-phenoxyphenyl)nicotinamide]: over 1 µM.
For `COC(=O)c1cccc(CO[C@H]2CCC[C@@H]2NC(=O)c2cc(-c3cnn(C)c3)cnc2N)c1` [Example 42, methyl 3-((((1S,2S)-2-(2-amino-5-(1-methyl-1H-pyrazol-4-yl)nicotinamido)cyclopentyl)oxy)methyl)benzoate] the value was over 1 µM; for `C[C@H](COCC1CCC1)NC(=O)c1cc(-c2cnn(C)c2)cnc1N` [Example 119, (R)-2-amino-N-(1-(cyclobutylmethoxy)propan-2-yl)-5-(1-methyl-1H-pyrazol-4-yl)nicotinamide], over 1 µM; for `Cn1cc(-c2cnc(N)c(C(=O)N[C@H]3CCC[C@@H]3OCc3ccccc3)c2)c(CNCCO)n1` [Example 262, 2-amino-N-((1S,2S)-2-(benzyloxy)cyclopentyl)-5-(3-(((2-hydroxyethyl)amino)methyl)-1-methyl-1H-pyrazol-4-yl)nicotinamide], over 1 µM.
With `Cn1cc(-c2cnc(N)c(C(=O)N[C@H]3CCC[C@@H]3OCc3cccc(NC(=O)C4CCNCC4)c3)c2)cn1` [Example 57, 2-amino-5-(1-methyl-1H-pyrazol-4-yl)-N-((1S,2S)-2-((3-(piperidine-4-carboxamido)benzyl)oxy)cyclopentyl)nicotinamide], the IC50 is over 1 µM.
Consider `Cn1cc(-c2cnc(N)c(C(=O)N[C@H]3CCCc4ccccc43)n2)cn1` [Example 131, (S)-3-amino-6-(1-methyl-1H-pyrazol-4-yl)-N-(1,2,3,4-tetrahydronaphthalen-1-yl)pyrazine-2-carboxamide], for which the IC50 is over 1 µM.
For `COc1ccc(CO[C@@H]2CCC[C@H]2NC(=O)c2cc(-c3cnn(C)c3)cnc2N)cc1` [Example 36, 2-amino-N-((1R,2R)-2-((4-methoxybenzyl)oxy)cyclopentyl)-5-(1-methyl-1H-pyrazol-4-yl)nicotinamide] the value was over 1 µM; for `Cn1cc(-c2cnc(N)c(C(=O)N[C@H]3CCC[C@@H]3OCc3ccccc3)n2)cn1` [Example 129, 3-amino-N-((1S,2S)-2-(benzyloxy)cyclopentyl)-6-(1-methyl-1H-pyrazol-4-yl)pyrazine-2-carboxamide], over 1 µM.
Next, `Cn1cc(-c2cnc(N)c(C(=O)N[C@@H](CO)C3CCCCC3)c2)cn1` [Example 114, (R)-2-amino-N-(1-cyclohexyl-2-hydroxyethyl)-5-(1-methyl-1H-pyrazol-4-yl)nicotinamide]: over 1 µM.
With `COc1cccc(CO[C@@H](C)CNC(=O)c2cc(-c3cnn(C)c3)cnc2N)c1` [Example 107, (S)-2-amino-N-(2-((3-methoxybenzyl)oxy)propyl)-5-(1-methyl-1H-pyrazol-4-yl)nicotinamide], the IC50 is over 1 µM.
Next, `Cn1cc(-c2cnc(N)c(C(=O)N[C@H]3CCC[C@@H]3OCc3ccc(-c4cccc(CN)c4)cc3)c2)cn1` [Example 143]: over 1 µM.
Next, `C[C@@H](OCc1ccccc1)[C@H](NC(=O)c1cc(-c2cnn(C)c2)cnc1N)C(=O)N1CCCC1` [Example 125, 2-amino-N-((2S,3R)-3-(benzyloxy)-1-oxo-1-(pyrrolidin-1-yl)butan-2-yl)-5-(1-methyl-1H-pyrazol-4-yl)nicotinamide]: over 1 µM; `CN1CCN(Cc2ccc(-c3ccc(CO[C@H]4COCC4NC(=O)c4cc(-c5cnn(C)c5)cnc4N)cc3)cc2)CC1` (some centres unmarked) [Example 454]: under 0.01 µM; `CC(C)N1C[C@H](NC(=O)c2cc(-c3cnn(C)c3)cnc2N)[C@@H](OCc2ccccc2)C1` (relative stereo) [Example 94, 2-amino-N-(trans-4-(benzyloxy)-1-isopropylpyrrolidin-3-yl)-5-(1-methyl-1H-pyrazol-4-yl)nicotinamide]: over 1 µM.
For `Cn1cc(-c2cnc(N)c(C(=O)N[C@H]3CCC[C@@H]3OCc3cccc(-c4cccc(N)c4)c3)c2)cn1` [Example 170, 2-amino-N-((1S,2S)-2-((3′-amino-[1,1′-biphenyl]-3-yl)methoxy)-cyclopentyl)-5-(1-methyl-1H-pyrazol-4-yl)nicotinamide] the value was over 1 µM; for `Cn1cc(-c2cnc(N)c(C(=O)N[C@H]3COC[C@H]3O)c2)cn1` (relative stereo) [Example 92, 2-amino-N-(cis-4-hydroxytetrahydrofuran-3-yl)-5-(1-methyl-1H-pyrazol-4-yl)nicotinamide], over 1 µM.
As to `COC(=O)[C@H](COCc1ccccc1)NC(=O)c1cc(-c2cnn(C)c2)cnc1N` [Example 120, methyl N-(2-amino-5-(1-methyl-1H-pyrazol-4-yl)nicotinoyl)-O-benzyl-L-serinate], the IC50 was over 1 µM.

What is called IC50 is the midpoint of a concentration-inhibition curve.
